Reference: patent publication US20250186321A1, “FORMULATION USING AMINO ACID AND CARBOXYLIC ACID, ORGANIC SALT, AND COMPOSITION COMPRISING SAME AND USE THEREOF” (MIYOSHI OIL & FAT CO., LTD., priority 2021, published 2025)

Assay: Appearance of formulation (state at 25° C.)
Format: physicochemical
Details: Tables 1C-1 to 1D; compounding molar ratio (Component (A):Component (B)) 1:1
Experimental: Formulations 1 to 427 shown in Tables 1A to 1D were prepared by the above-described method using the components (A) and (B) at the compounding molar ratios shown in the tables, and their states at 25° C. were observed.

| state at 25° C. | SMILES |
| --- | --- |
| Solid | N[C@@H](CS)C(=O)O.O=C(O)CC(O)(CC(=O)O)C(=O)O [Formulation 318] |
| Solic | N[C@@H](CS)C(=O)O.O=C(O)C(O)C(O)C(=O)O (stereo not shown) [Formulation 319] |
| Solid | N[C@@H](CS)C(=O)O.O=C1O[C@H]([C@@H](O)CO)C(O)=C1O [Formulation 321] |
| Solid | N[C@@H](CS)C(=O)O.O=C1O[C@H]([C@H](O)CO)C(O)=C1O [Formulation 322] |
| Solid | CSCC[C@H](N)C(=O)O.O=CO [Formulation 323] |
| Solid | CC(=O)O.CSCC[C@H](N)C(=O)O [Formulation 324] |
| Solid | CCC(=O)O.CSCC[C@H](N)C(=O)O [Formulation 325] |
| Solid | CCCCCC(=O)O.CSCC[C@H](N)C(=O)O [Formulation 326] |
| Solid | CCCC(=O)O.CSCC[C@H](N)C(=O)O [Formulation 327] |
| Solid | CSCC[C@H](N)C(=O)O.O=C(O)[C@H](O)[C@@H](O)[C@H](O)[C@H](O)CO [Formulation 328] |
| Solid | CC(O)C(=O)O.CSCC[C@H](N)C(=O)O [Formulation 329] |
| Solid | CSCC[C@H](N)C(=O)O.O=C(O)CCCCC(=O)O [Formulation 330] |
| Solid | CSCC[C@H](N)C(=O)O.O=C(O)CCC(=O)O [Formulation 331] |
| Solid | CSCC[C@H](N)C(=O)O.O=C(O)/C=C/C(=O)O [Formulation 333] |
| Solid | CSCC[C@H](N)C(=O)O.O=C(O)C[C@H](O)C(=O)O [Formulation 334] |
| Solid | CSCC[C@H](N)C(=O)O.O=C(O)CC(O)(CC(=O)O)C(=O)O [Formulation 335] |
| Solid | CSCC[C@H](N)C(=O)O.O=C(O)C(O)C(O)C(=O)O (stereo not shown) [Formulation 336] |
| Solid | CSCC[C@H](N)C(=O)O.O=C1O[C@H]([C@@H](O)CO)C(O)=C1O [Formulation 338] |
| Solid | CSCC[C@H](N)C(=O)O.O=C1O[C@H]([C@H](O)CO)C(O)=C1O [Formulation 339] |
| Solid | O=C(O)[C@@H]1CCCN1.O=CO [Formulation 340] |
| Solid | CCC(=O)O.O=C(O)[C@@H]1CCCN1 [Formulation 342] |

| state at 25° C. | SMILES |
| --- | --- |
| Salid | CCCCCC(=O)O.O=C(O)[C@@H]1CCCN1 [Formulation 343] |
| Solid | CCCC(=O)O.O=C(O)[C@@H]1CCCN1 [Formulation 344] |
| Solid | O=C(O)CCCCC(=O)O.O=C(O)[C@@H]1CCCN1 [Formulation 350] |
| Solid | O=C(O)CCC(=O)O.O=C(O)[C@@H]1CCCN1 [Formulation 351] |
| Solid | O=C(O)/C=C/C(=O)O.O=C(O)[C@@H]1CCCN1 [Formulation 353] |
| Solid | O=C(O)C(O)C(O)C(=O)O.O=C(O)[C@@H]1CCCN1 (stereo not shown) [Formulation 356] |
| Solid | N[C@@H](Cc1ccccc1)C(=O)O.O=CO [Formulation 360] |
| Solid | CC(=O)O.N[C@@H](Cc1ccccc1)C(=O)O [Formulation 361] |
| Solid | CCC(=O)O.N[C@@H](Cc1ccccc1)C(=O)O [Formulation 362] |
| Solid | CCCCCC(=O)O.N[C@@H](Cc1ccccc1)C(=O)O [Formulation 363] |
| Solid | CCCC(=O)O.N[C@@H](Cc1ccccc1)C(=O)O [Formulation 364] |
| Solid | N[C@@H](Cc1ccccc1)C(=O)O.O=C(O)[C@H](O)[C@@H](O)[C@H](O)[C@H](O)CO [Formulation 365] |
| Solid | CC(O)C(=O)O.N[C@@H](Cc1ccccc1)C(=O)O [Formulation 366] |
| Solid | N[C@@H](Cc1ccccc1)C(=O)O.O=C(O)CCCCC(=O)O [Formulation 367] |
| Solid | N[C@@H](Cc1ccccc1)C(=O)O.O=C(O)CCC(=O)O [Formulation 368] |
| Solid | N[C@@H](Cc1ccccc1)C(=O)O.O=C(O)/C=C/C(=O)O [Formulation 370] |
| Salid | N[C@@H](Cc1ccccc1)C(=O)O.O=C(O)C[C@H](O)C(=O)O [Formulation 371] |
| Solid | N[C@@H](Cc1ccccc1)C(=O)O.O=C(O)CC(O)(CC(=O)O)C(=O)O [Formulation 372] |
| Solid | N[C@@H](Cc1ccccc1)C(=O)O.O=C(O)C(O)C(O)C(=O)O [Formulation 373] |
| Solid | N[C@@H](Cc1ccccc1)C(=O)O.O=C1O[C@H]([C@H](O)CO)C(O)=C1O [Formulation 375] |

| SMILES | state at 25° C. |
| --- | --- |
| N[C@@H](CS)C(=O)O.O=C(O)c1ccccc1 [Formulation 320] | Solid |
| CSCC[C@H](N)C(=O)O.N[C@@H](CCC(=O)O)C(=O)O [Formulation 332] | Solid |
| CSCC[C@H](N)C(=O)O.O=C(O)c1ccccc1 [Formulation 337] | Solid |
| N[C@@H](CCC(=O)O)C(=O)O.O=C(O)[C@@H]1CCCN1 [Formulation 352] | Solid |
| O=C(O)[C@@H]1CCCN1.O=C(O)c1ccccc1 [Formulation 357] | Solid |
| N[C@@H](CCC(=O)O)C(=O)O.N[C@@H](Cc1ccccc1)C(=O)O [Formulation 369] | Solid |
| N[C@@H](Cc1ccccc1)C(=O)O.O=C(O)c1ccccc1 [Formulation 374] | Solid |
| N[C@@H](Cc1c[nH]c2ccccc12)C(=O)O.O=CO [Formulation 377] | Solid |
| CC(=O)O.N[C@@H](Cc1c[nH]c2ccccc12)C(=O)O [Formulation 378] | Solid |
| CCC(=O)O.N[C@@H](Cc1c[nH]c2ccccc12)C(=O)O [Formulation 379] | Solid |
| CCCCCC(=O)O.N[C@@H](Cc1c[nH]c2ccccc12)C(=O)O [Formulation 380] | Solid |
| CCCC(=O)O.N[C@@H](Cc1c[nH]c2ccccc12)C(=O)O [Formulation 381] | Solid |
| N[C@@H](Cc1c[nH]c2ccccc12)C(=O)O.O=C(O)[C@H](O)[C@@H](O)[C@H](O)[C@H](O)CO [Formulation 382] | Solid |
| CC(O)C(=O)O.N[C@@H](Cc1c[nH]c2ccccc12)C(=O)O [Formulation 383] | Solid |
| N[C@@H](Cc1c[nH]c2ccccc12)C(=O)O.O=C(O)CCCCC(=O)O [Formulation 384] | Solid |
| N[C@@H](Cc1c[nH]c2ccccc12)C(=O)O.O=C(O)CCC(=O)O [Formulation 385] | Solid |
| N[C@@H](CCC(=O)O)C(=O)O.N[C@@H](Cc1c[nH]c2ccccc12)C(=O)O [Formulation 386] | Solid |
| N[C@@H](Cc1c[nH]c2ccccc12)C(=O)O.O=C(O)/C=C/C(=O)O [Formulation 387] | Solid |
| N[C@@H](Cc1c[nH]c2ccccc12)C(=O)O.O=C(O)C[C@H](O)C(=O)O [Formulation 388] | Solid |
| N[C@@H](Cc1c[nH]c2ccccc12)C(=O)O.O=C(O)CC(O)(CC(=O)O)C(=O)O [Formulation 389] | Solid |
